Values after ≈ are worked out from the molar mass of the structure shown. Where a name gives a salt, the structure may show the parent alone.
How the values were obtained:
[1] = Storage stability of the crystalline salt (HPLC area, Raman, appearance); assay type: physicochemical; settings: for Storage stability (general statement): crystalline forms disclosed; for HPLC area reference value: reference value against which the HPLC area after 1 week at 60° C./75% r.h. is compared
Protocol: FT-Raman Spectroscopy: Bruker RFS100. Nd:YAG 1064 nm excitation, 100 mW laser power, Ge-detector, 64 scans, range 25-3500 cm^−1, […].
HPLC: HPLC measurement were carried out with a HP LC1090M, Column Symmetry C18, 3.0·150 mm.

[2] = Approximate solubility in water; assay type: physicochemical
Protocol: The limit value of completely dissolved amount was determined. Determination of solubilities below 20 mg/l occurred with stirring suspensions in water, filtering off the excess, and measuring of the amount of substance in the filtrate.

[3] = stored 1 week at 60° C. and about 75% r.h. in an open container
[4] = approximate, double distilled water added stepwise to 5 mg substance, sonification
[5] = storage for 1 week at 100° C. in a closed ampoule
[6] = stored 1 week at 60° C. and about 75% r.h. in a closed container

CC(C)COc1ccc(CNC(=O)N(Cc2ccc(F)cc2)C2CCN(C)CC2)cc1 [Example 2, N-(4-fluorobenzyl)-N-(1-methylpiperidin-4-yl)-N′-(4-(2-methylpropyloxy)phenylmethyl)carbamide citrate]
Storage stability (general statement) [1]: good storage stability | HPLC area reference value [1]: 99.9% | HPLC area after storage [1, 3]: 99.4% | State of crystalline powder after storage [1, 3]: substantially unchanged | Solubility in aqueous systems (general statement) ([2]; aqueous systems): very soluble | solubility at 2 min ([2]; thermodynamic from solid, approximate, double distilled water added stepwise to 5 mg substance, sonification): ~14 mg/mL

CC(C)COc1ccc(CNC(=O)N(Cc2ccc(F)cc2)C2CCN(C)CC2)cc1.O=C(O)/C=C/C(=O)O [Example 3, N-(4-fluorobenzyl)-N-(1-methylpiperidin-4-yl)-N′-(4-(2-methylpropyloxy)phenylmethyl)carbamide fumarate]
HPLC area reference value [1]: 99.4% | Changes on storage detected with Raman spectroscopy ([1]; storage at 75% r.h. in an open container): changes of the substance after 3 days | HPLC area after storage [1, 3]: 96.7% | State of crystalline powder after storage [1, 3]: substantially unchanged | Solubility in water [2, 4]: > 500 mg/mL

CC(C)COc1ccc(CNC(=O)N(Cc2ccc(F)cc2)C2CCN(C)CC2)cc1 [Example 4, N-(4-fluorobenzyl)-N-(1-methylpiperidin-4-yl)-N′-(4-(2-methylpropyloxy)phenylmethyl)carbamide maleate]
Solubility in water [2, 4]: > 500 mg/mL

CC(C)COc1ccc(CNC(=O)N(Cc2ccc(F)cc2)C2CCN(C)CC2)cc1 [Example 5, N-(4-fluorobenzyl)-N-(1-methylpiperidin-4-yl)-N′-(4-(2-methylpropyloxy)phenylmethyl)carbamide malate]
Solubility in water [2, 4]: > 500 mg/mL

CC(C)COc1ccc(CNC(=O)N(Cc2ccc(F)cc2)C2CCN(C)CC2)cc1 [Example 6, N-(4-fluorobenzyl)-N-(1-methylpiperidin-4-yl)-N′-(4-(2-methylpropyloxy)phenylmethyl)carbamide phosphate]
Solubility in water [2, 4]: > 250 mg/mL

CC(C)COc1ccc(CNC(=O)N(Cc2ccc(F)cc2)C2CCN(C)CC2)cc1 [Example 7, N-(4-fluorobenzyl)-N-(1-methylpiperidin-4-yl)-N′-(4-(2-methylpropyloxy)phenylmethyl)carbamide succinate]
Solubility in water [2, 4]: > 500 mg/mL

CC(C)COc1ccc(CNC(=O)N(Cc2ccc(F)cc2)C2CCN(C)CC2)cc1 [Example 9, N-(4-fluorobenzyl)-N-(1-methylpiperidin-4-yl)-N′-(4-(2-methylpropyloxy)phenylmethyl)carbamide edisylate]
Storage stability (general statement) [1]: good storage stability | HPLC area reference value [1]: 96.8% | HPLC area after storage [1, 5]: 97.4% | State of crystalline product after storage [1, 5]: does not decompose | HPLC area after storage [1, 6]: 97.4% | State of crystalline powder after storage [1, 6]: remains a white powder | Solubility in water [2, 4]: 4 mg/mL (≈ 9.36 mM)

Reference: patent US7868176B2, “Salts of N-(4-fluorobenzyl)-N-(1-methylpiperidin-4-y1)-N′-(4-(2-methylpropyloxy)phenylmethyl)carbamide and their preparation” (ACADIA Pharmaceuticals, Inc., priority 2004, dated 2011)
